The record followed here is ChEMBL document CHEMBL1124537, “The importance of the orientation of the C9 substituent to cannabinoid activity” (J Med Chem, 1989).

Common to all, as to format: functional, organism-based
Holding throughout (details): Cercopithecidae

In assay [1] the test system is Monkey. Description: Compound was tested for activity in rhesus monkey behavioral test; Inactive.
Assay [2] deals with Monkey. Description: Compound was tested for activity in rhesus monkey behavioral test; Minimal activity.
In assay [3] the test system is Monkey. Description: Compound was tested for activity in rhesus monkey behavioral test; Active.

The structures appear in SMILES notation. Calls of active or inactive are those of the source. No cut-off for these calls is given here.

Regarding `C=C1CCC2C(C1)c1c(O)cc(CCCCC)cc1OC2(C)C` (stereo unspecified), in assay [1], the outcome was inactive. Consider `CCCCCc1cc(O)c2c(c1)OC(C)(C)C1CC[C@@H](C)CC21` (stereo partly specified), for which the Activity entry in assay [2] was “Minimal activity”. For `CCCCCc1cc(O)c2c(c1)OC(C)(C)[C@@H]1CCC(C)=C[C@@H]21`, in assay [3], the result was Active. For `CCCCCc1cc(O)c2c(c1)OC(C)(C)[C@@H]1CC=C(C)C[C@@H]21`, the result in assay [3] was Active. Still for that read-out and setting: in the case of `CCCCCc1cc(O)c2c(c1)OC(C)(C)C1CC[C@H](C)CC21` (stereo partly specified) it was “Active”. Take `CCCCCc1cc(O)c2c(c1)OC(C)(C)C1C=C[C@H](C)CC21` (stereo partly specified): the result in assay [1] was inactive.
